Source: US9796753B2, “N-substituted indenoisoquinolines and syntheses thereof” (Purdue Research Foundation, priority 2005, dated 2017)
Like-named read-outs stand apart in the source and are kept apart here.

What was measured:
Type in all cases: cell-based
[1] = system: breast MDA-MB-435; assay: COMPARE screening (NCI human cancer cell line screen), cytotoxicity GI50
[2] = system: CNS SF-539; assay: as above
Method: (§1) Selected compounds were tested for antiproliferative activity in the National Cancer Institute's developmental therapeutics assay 60 cell line screen (NCI60). The cells were incubated with the tested compounds at 100, 10, 1, 0.1, and 0.01 μM concentrations for 48 h before treatment with sulforhodamine B dye. Optical densities were recorded, and their ratios relative to that of the control were plotted as percentage growth against the log 10 of the tested compound concentrations.

[3] = system: prostate DU-145; assay: as above
Method: as §1

[4] = system: melanoma UACC-62; assay: as above
Method: as §1

[5] = system: colon HCT-116; assay: as above
Method: as §1

[6] = system: renal SN12C; assay: as above
Method: as §1

[7] = system: ovarian OVCAR-3; assay: as above
Method: as §1

[8] = system: all human cancer cell lines successfully tested; assay: NCI screen mean graph midpoint (MGM) for growth inhibition
Method: COMPARE screening. The compounds described herein were examined for antiproliferative activity against the human cancer cell lines in the National Cancer Institute screen (COMPARE screening), in which the activity of each compound was evaluated with approximately 55 different cancer cell lines of diverse tumor origins. […] Therefore, the MGM value represents an overall assessment of toxicity of the compound across numerous cell lines.
as §1
The cytotoxicities of the compounds to cultured cancer cells were measured in the National Cancer Institute's 60 cell line assay (a.k.a. NCI-60).

[9] = system: lung HOP-62; assay: COMPARE screening (NCI human cancer cell line screen), cytotoxicity GI50
Method: as §1

[10] = Homo sapiens, MDA-MB-435, read-out: cytotoxicity (GI50) breast MDA-MB-435
[11] = Homo sapiens, CNSSF-539, read-out: cytotoxicity (GI50) CNS SF-539
[12] = Homo sapiens, DU-145, read-out: cytotoxicity (GI50) prostate DU-145
[13] = Homo sapiens, UACC-62, read-out: cytotoxicity (GI50) melanoma UACC-62
[14] = Homo sapiens, HCT-116, read-out: cytotoxicity (GI50) colon HCT-116
[15] = Homo sapiens, SN12C, read-out: cytotoxicity (GI50) renal SN12C
[16] = Homo sapiens, OVCAR-3, read-out: cytotoxicity (GI50) ovarian OVCAR-3
[17] = Table 1, average GI50 of all cell lines tested (approximately 55), test range 10^−8 to 10^−4 molar
[18] = Homo sapiens, HOP-62, read-out: cytotoxicity (GI50) lung HOP-62
[19] = all human cancer cell lines successfully tested

SMILES | GI50 [1] | GI50 [3] | GI50 [4] | GI50 [5] | GI50 [6] | GI50 [7] | MGM (mean GI50 across cell lines) [8, 17] | GI50 [9] | further results
COc1cc2c3c(oc(=O)c2cc1OC)-c1ccccc1C3=O [Compound 4a, 2,3-dimethoxybenz[d]indeno[1,2-b]pyran-5,11-dione] |  |  |  |  |  |  |  |  | GI50 [1, 10]: ≥ 100 µM; GI50 [2, 11]: ≥ 100 µM; GI50 [3, 12]: ≥ 100 µM; GI50 [4, 13]: ≥ 100 µM; GI50 [5, 14]: ≥ 100 µM; GI50 [6, 15]: ≥ 100 µM; GI50 [7, 16]: ≥ 100 µM; MGM (mean GI50 across cell lines) ([8]; Homo sapiens): ≥ 100 µM
COc1cc2c3c(n(CCCN(C)C)c(=O)c2cc1OC)-c1ccccc1C3=O [Compound 5a] | 7.08 µM | 4.47 µM | 6.61 µM | 2.45 µM | 11 µM | 5.89 µM | 6.17 µM |  | GI50 [2]: 6.17 µM
CC(C)(C)OC(=O)NCCCCCCCn1c2c(c3ccccc3c1=O)C(=O)c1ccccc1-2 [Compound 5af, 6-(7′-tert-BOC-Aminoheptyl)-5,6-dihydro-5,11-dioxo-11H-indeno[1,2-c]isoquinoline] | 81.3 µM | 31.6 µM | 20 µM | 17.4 µM | 74.1 µM | 33.9 µM | 30.9 µM |  | GI50 [2]: 20.9 µM
CC(C)(C)OC(=O)NCCCCCCCCCn1c2c(c3ccccc3c1=O)C(=O)c1ccccc1-2 [Compound 5ah, 6-(9′-tert-BOC-Aminononyl)-5,6-dihydro-5,11-dioxo-11H-indeno[1,2-c]isoquinoline] | > 100 µM | > 100 µM | 17.4 µM |  | 77.6 µM | 28.8 µM | 50.1 µM | 24.5 µM | GI50 [2]: 17.8 µM
O=C1c2ccccc2-c2c1c1ccccc1c(=O)n2Cc1ccccn1 [Compound 5aw, 5,6-Dihydro-5,11-dioxo-6-(2-pyridylmethyl)-11H-indeno[1,2-c]isoquinoline] |  |  |  |  |  |  | 15.1 µM |  | GI50 [1, 10]: 3.09 µM; GI50 [2, 11]: 12.3 µM; GI50 [3, 12]: 13.5 µM; GI50 [9, 18]: 11.2 µM; GI50 [4, 13]: 10.7 µM; GI50 [6, 15]: 28.2 µM; GI50 [7, 16]: 13.8 µM
Cl.O=C1c2ccccc2-c2c1c1ccccc1c(=O)n2CCc1ccccn1 [Compound 5ay, 5,6-Dihydro-5,11-dioxo-6-(2-pyridylethyl)-11H-indeno[1,2-c]isoquinoline Hydrochloride] |  |  |  |  |  |  | 53.7 µM |  | GI50 [1, 10]: 5.13 µM; GI50 [2, 11]: 17.4 µM; GI50 [3, 12]: 74.1 µM; GI50 [9, 18]: 21.4 µM; GI50 [4, 13]: 27.5 µM; GI50 [6, 15]: 77.6 µM; GI50 [7, 16]: > 100 µM
O=C1c2ccccc2-c2c1c1ccc([N+](=O)[O-])cc1c(=O)n2CCCBr [Compound 5bb, 6-(3-Bromopropyl)-5,6-dihydro-5,11-dioxo-3-nitro-11H-indeno[1,2-c]isoquinoline] |  |  |  |  |  |  | 40.0 µM |  | GI50 [1, 10]: > 100 µM; GI50 [2, 11]: > 100 µM; GI50 [3, 12]: > 100 µM; GI50 [4, 13]: > 100 µM; GI50 [5, 14]: 3.47 µM; GI50 [6, 15]: > 100 µM; GI50 [7, 16]: > 100 µM
COc1ccc2c(c1)C(=O)c1c-2n(CCCI)c(=O)c2cc([N+](=O)[O-])ccc12 [Compound 5bd] | 1.48 µM | 0.034 µM | 0.148 µM | 0.046 µM | 0.309 µM | 3.02 µM |  |  | GI50 [2]: 0.058 µM; MGM (mean graph midpoint for growth inhibition) [8, 17]: 0.328 ± 0.046 µM
[N-]=[N+]=NCCCn1c2c(c3ccccc3c1=O)C(=O)c1ccccc1-2 [Compound 5bh] | 7.76 µM | 29.5 µM | 19.5 µM | 4.9 µM | 25.1 µM | 7.94 µM | 12.3 µM | 7.59 µM | 
COc1ccc2c(c1)C(=O)c1c-2n(CCCN2CCOCC2)c(=O)c2cc([N+](=O)[O-])ccc12 [Compound 5bj] | < 0.01 µM |  | < 0.01 µM | < 0.01 µM | < 0.01 µM | < 0.01 µM |  | < 0.01 µM | MGM (mean graph midpoint for growth inhibition) [8, 17]: 0.014 ± 0.001 µM
CN(C)CCCn1c2c(c3ccc([N+](=O)[O-])cc3c1=O)C(=O)c1ccccc1-2 [Compound 5c] | > 100 µM |  | 7.08 µM | 6.46 µM | 4.17 µM | 25.7 µM | 9.77 µM |  | 
CN(C)CCCn1c2c(c3ccccc3c1=O)C(=O)c1ccccc1-2 [Compound 5d] | 2.82 µM | 1.32 µM | 0.51 µM | 0.58 µM | 0.91 µM | 1.7 µM |  |  | 
O=C1c2ccccc2-c2c1c1ccccc1c(=O)n2CCCn1ccnc1 [Compound 5g] |  | 1.41 µM | 0.79 µM | 1.41 µM | 1.66 µM | 1.66 µM | 1.86 µM |  | GI50 [2]: 2.34 µM
O=C1c2ccccc2-c2c1c1ccc([N+](=O)[O-])cc1c(=O)n2CCN1CCOCC1 [Compound 5i, 5,6-Dihydro-6-(2-morpholin-4-yl-1-ethyl)-3-nitro-5,11-dioxo-11H-indeno[1,2-c]isoquinoline] |  |  |  |  |  |  | 74.1 µM |  | GI50 [1, 10]: > 100 µM; GI50 [3, 12]: 61.7 µM; GI50 [9, 18]: 52.5 µM; GI50 [4, 13]: 83.2 µM; GI50 [5, 14]: > 100 µM; GI50 [6, 15]: 58.9 µM; GI50 [7, 16]: > 100 µM
COc1cc2c3c(n(CCCn4ccnc4)c(=O)c2cc1OC)-c1cc2c(cc1C3=O)OCO2.Cl [Compound 5l] |  |  |  |  |  |  |  |  | MGM (mean graph midpoint for growth inhibition) [8, 17]: 0.079 ± 0.023 µM
CN(CCCn1c2c(c3ccccc3c1=O)C(=O)c1ccccc1-2)CCCn1c2c(c3ccccc3c1=O)C(=O)c1ccccc1-2 [Compound 12d, Bis{(5,6-dihydro-5,11-diketo-11H-indeno[1,2-c]isoquinoline)-6-propyl}methylamine] |  |  |  |  |  |  |  |  | GI50 ([1]; breast MDA-MB-435, concentration corresponding to 50% growth inhibition, read-out: cytotoxicity (GI50 in μM) breast MDA-MB-435): 1.55 µM; GI50 ([2]; CNS SF-539, concentration corresponding to 50% growth inhibition, read-out: cytotoxicity (GI50 in μM) CNS SF-539): 1.12 µM; GI50 ([4]; melanoma UACC-62, concentration corresponding to 50% growth inhibition, read-out: cytotoxicity (GI50 in μM) melanoma UACC-62): 2 µM; GI50 ([6]; renal SN12C, concentration corresponding to 50% growth inhibition, read-out: cytotoxicity (GI50 in μM) renal SN12C): 0.589 µM; GI50 ([7]; ovarian OVCAR-3, concentration corresponding to 50% growth inhibition, read-out: cytotoxicity (GI50 in μM) ovarian OVCAR-3): 1.2 µM; MGM (mean graph midpoint for growth inhibition) [8, 19]: 0.934 ± 0.476 µM
Cl.O=C1c2ccccc2-c2c1c1ccccc1c(=O)n2CCCCNCCCn1c2c(c3ccccc3c1=O)C(=O)c1ccccc1-2 [Compound 14b, Bis{(5,6-dihydro-5,11-diketo-11H-indeno[1,2-c]isoquinoline)}-(6-propyl,6′-butyl)amine Hydrochloride] | 0.562 µM | 0.288 µM | 0.513 µM | 0.056 µM | 0.132 µM | 0.372 µM |  | 0.028 µM | MGM (mean graph midpoint for growth inhibition) [8, 19]: 0.357 ± 0.087 µM
O=C(O)C(F)(F)F.O=C(O)C(F)(F)F.O=C1c2ccccc2-c2c1c1ccccc1c(=O)n2CCNCCNCCn1c2c(c3ccccc3c1=O)C(=O)c1ccccc1-2 [Compound 14c, Bis-1,2-{(5,6-dihydro-5,11-diketo-11H-indeno[1,2-c]isoquinoline)-6-ethylamino}ethane Bis(trifluoroacetate)] | 1.66 µM | 0.182 µM | 0.331 µM | 0.029 µM | 0.178 µM | 1.66 µM |  | 0.032 µM | MGM (mean graph midpoint for growth inhibition) [8, 19]: 0.427 ± 0.01 µM
O=C(O)C(F)(F)F.O=C(O)C(F)(F)F.O=C1c2ccccc2-c2c1c1ccccc1c(=O)n2CCCNCCNCCCn1c2c(c3ccccc3c1=O)C(=O)c1ccccc1-2 [Compound 14e, Bis-1,2-{(5,6-dihydro-5,11-diketo-11H-indeno[1,2-c]isoquinoline)-6-propylamino}ethane Bis(trifluoroacetate)] | 0.933 µM | < 0.01 µM | 0.052 µM | < 0.01 µM | < 0.01 µM | 1.02 µM |  | < 0.01 µM | MGM (mean graph midpoint for growth inhibition) [8, 19]: 0.152 ± 0.062 µM
COc1cc2c3c(n(CCCN(CCCN(CCCn4c5c(c6ccccc6c4=O)C(=O)c4ccccc4-5)C(=O)OC(C)(C)C)C(=O)OC(C)(C)C)c(=O)c2cc1OC)-c1cc2c(cc1C3=O)OCO2 [Compound 16a, 1,3-{6-(3-tert-Butyloxycarbonylamino-1-propyl)-5,6-dihydro-2,3-dimethoxy-8,9-methylenedioxy-5,11-dioxo-11H-indeno[1,2-c]isoquinoline}-{5′,6′-dihydro-6′-[(3′-tert-butyloxycarbonylamino)-1′-propyl]-5′,11′-dioxo-11′H-indeno[1,2-c]isoquinoline}propane] | > 100 µM |  | > 100 µM | > 100 µM | > 100 µM |  |  | > 100 µM | MGM (mean GI50 across cell lines) [8, 19]: 68.0 µM
